Common to all, as to assay: area under concentration-response curve (viability) (AUC (a.u.)); higher = less active
What all share (details): 48 h

For one experiment, the system named is CU-ACC2. An outline of the steps: (§1)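 AC50 and area under the curve values derive from fitted concentration-response curves, restricted to inhibitory or non-responding curve classes. The curves came from three adrenocortical carcinoma cell lines in 1,536-well plates, each receiving 23 nL of every library compound at 11 concentrations. Viability was read by CellTiter-Glo luminescence after 48 h, normalised per plate to vehicle and empty-well controls.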

Another experiment relates to NCI-H295R. The method in brief: as §1
Another experiment relates to CU-ACC1. An outline of the steps: as §1

Structures are written as SMILES.

`CNc1nc(Nc2ccc(C(=O)N3CCOCC3)cc2OC)ncc1Cl`: the “area under concentration-response curve” value with CU-ACC2 was 607; with NCI-H295R, 555; in the experiment with CU-ACC1, 511.
On the same counts, the results for `N=C(N)NC(=O)c1nc(Cl)c(N)nc1N` are 658, 615 and 455.
The matching figures for `Cc1ccc(NC(=O)c2cccc(N(C)C)c2)cc1NC(=O)c1ccc(O)cc1`: 556, 511 and 496.
The matching figures for `CN(CC(=O)N(Cc1ccc(C2CCCCC2)cc1)c1ccc(C(=O)O)c(O)c1)[S+](=O)([O-])c1c(F)c(F)c(F)c(F)c1F`: 558, 536 and 486.
`O=C1Nc2ccc(I)cc2/C1=C/c1cc(Br)c(O)c(Br)c1`: the “area under concentration-response curve” value in the experiment with CU-ACC2 is 585; in the experiment with NCI-H295R it was 506; with CU-ACC1 it was 500.
On to `COc1ccc(-c2ccc3cc(C(=O)O)ccc3c2)cc1C12CC3CC(CC(C3)C1)C2`, for which the “area under concentration-response curve” value in the experiment with CU-ACC2 turned out to be 518; in the experiment on NCI-H295R it was 479; with CU-ACC1, 477.
Consider `O=C(O)C[C@H]1CC[C@H](c2ccc(-c3ccc(Nc4ccc(C(F)(F)F)nc4)cn3)cc2)CC1`, for which the results for the “area under concentration-response curve” value in the experiment on CU-ACC2, in the experiment on NCI-H295R and in the experiment with CU-ACC1 were 580, 538 and 504, respectively.
In the case of `Cc1ccc(NC(=O)Nc2nnc(Sc3ncnc4cc(OCCCN5CCOCC5)ccc34)s2)cc1`, the “area under concentration-response curve” value in the experiment on CU-ACC2 was found to be 583; in the experiment on NCI-H295R, 511; in the experiment with CU-ACC1 it was 521.
`CN1CCN(CC1)C\2=C\3/C=C(/C)SC3=N/C4=CC=CC=C4N2`: the entries for the “area under concentration-response curve” value in the experiment on CU-ACC2, with NCI-H295R and in the experiment on CU-ACC1 were 513, 555 and 556, respectively.
The matching figures for `C=CC(=O)N[C@H]1CCOC[C@H]1Nc1ncc2cc(-c3c(Cl)c(OC)cc(OC)c3Cl)ccc2n1`: 554, 453 and 458.
As for `CCNC(=O)Nc1ccc(Oc2ncnc(N)c2/C=N/OC)cc1Cl`, the “area under concentration-response curve” value with CU-ACC2 came out at 645; in the experiment on NCI-H295R, 567; with CU-ACC1, 509.
On to `CN1CCN(CCCNc2ncc(Cl)c(-c3cc4c(C(=O)NC5CC5)cccc4s3)n2)CC1`, for which the “area under concentration-response curve” value in the experiment with CU-ACC2 was found to be 557; with NCI-H295R it was 492; with CU-ACC1 it was 468.
Consider `CC/1=C/N([C@@H]2C[C@@H](O)[C@H](CO)O2)C(=O)NC1=O`, for which the “area under concentration-response curve” value in the experiment on CU-ACC2 was 425; with NCI-H295R it was 404; with CU-ACC1 it was 410.
As for `CCN(CC)CCCC(C)Nc1c2ccc(Cl)cc2nc2ccc(OC)cc12.Cl.Cl.O.O` (stereo not drawn), the “area under concentration-response curve” value with CU-ACC2 worked out at 561; with NCI-H295R it was 556; in the experiment with CU-ACC1, 402.
The matching figures for `CCCc1nc2c(C)cc(-c3nc4ccccc4n3C)cc2n1Cc1ccc(-c2ccccc2C(=O)O)cc1`: 639, 599 and 561.
On the same counts, the results for `Nc1nc(N)nc(-c2cc(Cl)ccc2Cl)n1` are 441, 410 and 409.
Consider `OC(=O)CNC(=O)\C1=C(/O)C2=CC=CC=C2N(CC3=CC=CC=C3)C1=O`, for which the “area under concentration-response curve” value was 539 in the experiment on CU-ACC2, 529 in the experiment with NCI-H295R and 441 in the experiment on CU-ACC1.
On to `CC(N)C12CC3CC(CC(C3)C1)C2` (stereo not drawn), for which the “area under concentration-response curve” value in the experiment on CU-ACC2 was 523; with NCI-H295R it was 494; with CU-ACC1 it was 507.
For the compound `CC(C(=O)O)c1ccc2c(c1)CC(=O)c1ccccc1S2` (stereo not drawn), the “area under concentration-response curve” value in the experiment with CU-ACC2 turned out to be 554; in the experiment with NCI-H295R, 497; with CU-ACC1, 535.
In the case of `Cc1nnc(N[S+](=O)([O-])c2ccc(N)cc2)s1`, the “area under concentration-response curve” value in the experiment on CU-ACC2 is 591; in the experiment with NCI-H295R, 546; in the experiment with CU-ACC1, 496.
On to `CC[C@H](/C=C/[C@@H](C)[C@H]1CC[C@H]2[C@@H]3CC=C4C[C@@H](O)CC[C@]4(C)[C@H]3CC[C@]12C)C(C)C`, for which the “area under concentration-response curve” value was 612 in the experiment on CU-ACC2, 602 in the experiment on NCI-H295R and 550 in the experiment on CU-ACC1.
On to `NCC[S+](=O)([O-])O`, for which the figures for the “area under concentration-response curve” value in the experiment on CU-ACC2, in the experiment with NCI-H295R and in the experiment with CU-ACC1 were 585, 488 and 495, respectively.
As to `COc1ccc2cccc(CCNC(C)=O)c2c1`, the entries for the “area under concentration-response curve” value in the experiment on CU-ACC2, in the experiment on NCI-H295R and with CU-ACC1 were 589, 579 and 515, respectively.
On the same counts, the results for `COc1ccc(/C=C\c2cc(OC)c(OC)c(OC)c2)cc1NC(=O)[C@H](N)CO` are 594, 521 and 542.
For `CC(C)c1cc(C(C)C)c(CC(=O)N[S+](=O)([O-])Oc2c(C(C)C)cccc2C(C)C)c(C(C)C)c1`, the “area under concentration-response curve” value with CU-ACC2 is 454; with NCI-H295R, 480; in the experiment on CU-ACC1, 456.
The matching figures for `NCCc1c[nH]cn1`: 605, 548 and 416.
In the case of `ClC\1=C(/CN2CCCC2=N)NC(=O)NC1=O`, the “area under concentration-response curve” value in the experiment with CU-ACC2 was found to be 547; in the experiment on NCI-H295R, 486; with CU-ACC1 it was 505.
Turning to `C[C@H]1C[C@@H]2[C@H](CC[C@@]3(C)[C@H]2CC[C@]3(OC(C)=O)C(C)=O)[C@@]\4(C)CCC(=O)\C=C14`, the “area under concentration-response curve” value with CU-ACC2 was determined as 618; with NCI-H295R it was 557; with CU-ACC1, 554.
On the same counts, the results for `CC(C)NCC(O)c1ccc(N[S+](C)(=O)[O-])cc1` (stereo not drawn) are 624, 570 and 530.
For `CCN(CC)CCN1C(=O)\C(=N/C2=CC=CC=C12)CC3=CC=C(OC)C=C3`, the “area under concentration-response curve” value was 526 with CU-ACC2, 501 in the experiment on NCI-H295R and 472 with CU-ACC1.
For `Cc1cnc(-c2cc(N3CCN(C(=O)CC[S+](C)(=O)[O-])CC3)ncc2Cl)c(C)c1`, the “area under concentration-response curve” value in the experiment on CU-ACC2 amounted to 534; in the experiment on NCI-H295R, 551; in the experiment with CU-ACC1 it was 536.

Source of the values: the supplement of paper PMC10949913.
